≈ marks a conversion by molar mass, not a printed value. Where “and” joins values, the source holds several entries; their conditions need not be identical. Equal values may be shown once. Read-outs that look alike come from different tables or passages of the source.
What was measured:
M. tuberculosis 103471 = assay: Antimycobacterial activity, twofold agar dilution MIC; assay type: cell-based; settings: for M. tuberculosis 103471 MIC: Middlebrook 7H11 agar; for MIC: Mycobacterium tuberculosis, 103471, Middlebrook 7H11 agar
Procedure: (§1) Compounds 3a-h were preliminarily assayed against two freshly isolated clinical strains, M. fortuitum CA10 and M. tuberculosis B814, according to the dilution method in agar (Hawkins et al., 1991).
(§2) Growth media were Mueller-Hinton (Difco) containing 10% of OADC (oleic acid, albumine and dextrose complex) for M. fortuitum and Middlebrook 7H11 agar (Difco) with 10% of OADC for M. tuberculosis. Substances were tested at the single dose of 100 μg/mL. The active compounds were then assayed for inhibitory activity against a variety of mycobacterium strains in Middlebrok 7H11 agar by a standard twofold agar dilution method. The mycobacterium species used for biological tests were M. tuberculosis […], M. tuberculosis H37Rv, M. tuberculosis INH-R ATCC, M. tuberculosis RMP-R ATCC and, among atypical mycobacteria, M. smegmatis 103599, M. marinum 6423 and M. avium 103317 (from the Institute Pasteur collection). Plates were incubated at 37° C. for 3 or 28 days. BM212, INH, SM and RIF were used as reference compounds. After cultivation, MICs were read as minimal concentrations of drugs completely inhibiting visible growth of mycobacteria.

M. tuberculosis H37Rv = assay: as above; assay type: cell-based; settings: Middlebrook 7H11 agar; for MIC: Mycobacterium tuberculosis, H37RV
Procedure: as §1, §2

M. avium 103317 = assay: Antimycobacterial activity, agar dilution MIC; assay type: cell-based
M. marinum 6423 = assay: Antimycobacterial activity, agar dilution MIC; assay type: cell-based
M. smegmatis 103599 = assay: Antimycobacterial activity, agar dilution MIC; assay type: cell-based
[1] = tested on: intracellular M. tuberculosis; assay: Inhibitory activity on intramacrophagic mycobacteria (J774.A1 murine macrophages); assay type: cell-based; settings: after 6 days of treatment
atypical mycobacteria = assay: Antimycobacterial activity toward atypical mycobacteria; assay type: cell-based; settings: M. avium, M. marinum, M. smegmatis together
Procedure: as §2

in vitro = settings: African green monkey
Vero cells = settings: MTT after 72 h
[2] = Mycobacterium avium, 103317; Table 7 head prints strain 103471; read-out: M. avium 103471 MIC
[3] = Mycobacterium avium, 103317; read-out: M. avium 103317 MIC
[4] = Mycobacterium marinum, 6423; read-out: M. marinum 6423 MIC
[5] = Mycolicibacterium smegmatis, 103599; read-out: M. smegmatis 103599 MIC
[6] = Table 7 head prints strain 103471

Compound	M. tuberculosis 103471 MIC (M. tuberculosis 103471)	MIC (M. tuberculosis 103471) [µg/mL]	MIC (M. tuberculosis H37Rv) [µg/mL]	MIC (M. avium 103317; [2]) [µg/mL]	MIC (M. avium 103317; [3]) [µg/mL]	MIC (M. marinum 6423; [4]) [µg/mL]	MIC (M. smegmatis 103599; [5]) [µg/mL]	CC50 (in vitro) [µg/mL]	M. tuberculosis H37Rv MIC (M. tuberculosis H37Rv) [µg/mL]	M. avium 103471 MIC (M. avium 103317; [6]) [µg/mL]	CC50 VERO cells (Vero cells) [µg/mL]	also measured
CSc1ccc(-c2cc(CN3CCSCC3)c(C)n2-c2ccc(F)cc2)cc1 [Compound 3a, N-(4-fluorophenyl)-2-methyl-3-thiomorpholinomethyl-5-(4-methylsulfanylphenyl)pyrrole]	0.125 µg/mL and <0.125 µg/mL	< 0.125	0.125 (≈ 0.303 µM)	8 (≈ 19.4 µM)	8 (≈ 19.4 µM)	8 (≈ 19.4 µM)	16 (≈ 38.8 µM)	> 128	–	–	–	% of growth reduction respect to untreated controls, intracellular M. tuberculosis ([1]; concentration 0.125 μg/ml): 96.12%; % of growth reduction respect to untreated controls, intracellular M. tuberculosis ([1]; concentration 0.25 μg/ml): 99.02%; % of growth reduction respect to untreated controls, intracellular M. tuberculosis ([1]; concentration 0.5 μg/ml): 99.72%; % of growth reduction respect to untreated controls, intracellular M. tuberculosis ([1]; concentration 1 μg/ml): 99.81%; activity toward atypical mycobacteria (MIC range) (atypical mycobacteria): 8 to 16 µg/mL
CSc1ccc(-c2cc(CN3CCOCC3)c(C)n2-c2ccc(F)cc2)cc1 [Compound 3h]	0.25 µg/mL	–	–	–	–	–	–	–	0.5	16	44.34 (≈ 112 µM)	–
NNC(=O)c1ccncc1 [Isoniazid, INH, Isoniazid, reference compound]	–	0.125 (≈ 0.911 µM)	0.25 (≈ 1.82 µM)	–	–	–	–	32 (≈ 233 µM)	–	–	–	MIC (M. avium 103317; Mycobacterium avium, 103317, read-out: M. avium 103317 MIC): 32 µg/mL (≈ 233 µM); MIC (M. avium 103317; Mycobacterium avium, 103317, read-out: M. avium 103471 MIC): 32 µg/mL (≈ 233 µM); MIC (M. marinum 6423; Mycobacterium marinum, 6423, read-out: M. marinum 6423 MIC): 16 µg/mL (≈ 117 µM); MIC (M. smegmatis 103599; Mycolicibacterium smegmatis, 103599, read-out: M. smegmatis 103599 MIC): 64 µg/mL (≈ 467 µM)
CSc1ccc(-c2cc(CN3CCSCC3)c(C)n2-c2ccc(C(C)C)cc2)cc1 [Compound 3e]	0.125 µg/mL	–	–	–	–	–	–	–	0.5	8	37.58 (≈ 86.1 µM)	–
CSc1ccc(-c2cc(CN3CCN(C)CC3)c(C)n2-c2ccc(F)cc2)cc1 [Compound 3f]	2 µg/mL	–	–	–	–	–	–	–	2	4	9.33 (≈ 22.8 µM)	–
CSc1ccc(-c2cc(CN3CCCCC3)c(C)n2-c2ccc(F)cc2)cc1 [Compound 3g]	8 µg/mL	–	–	–	–	–	–	–	–	–	–	–
CSc1ccc(-c2cc(CN3CCSCC3)c(C)n2-c2ccc(C)cc2)cc1 [Compound 3b]	0.25 µg/mL	–	–	–	–	–	–	–	0.25	16	18.40 (≈ 45 µM)	–
CCc1ccc(-n2c(-c3ccc(SC)cc3)cc(CN3CCSCC3)c2C)cc1 [Compound 3c]	0.25 µg/mL	–	–	–	–	–	–	–	0.25	>16	17.18 (≈ 40.6 µM)	–
[H]/N=C(/N)N[C@H]1[C@H](O)[C@@H](O)[C@H](O[C@@H]2O[C@@H](C)[C@](O)(C=O)[C@H]2O[C@@H]2O[C@@H](CO)[C@H](O)[C@@H](O)[C@@H]2NC)[C@@H](N/C(N)=N\[H])[C@@H]1O [Streptomycin, SM, Streptomycin, reference compound]	0.3 µg/mL	0.3 (≈ 0.516 µM)	0.5 (≈ 0.86 µM)	8 (≈ 13.8 µM)	8 (≈ 13.8 µM)	32 (≈ 55 µM)	8 (≈ 13.8 µM)	64 (≈ 110 µM)	–	–	–	–
CO[C@H]1/C=C/O[C@@]2(C)Oc3c(C)c(O)c4c(O)c(c(/C=N/N5CCN(C)CC5)c(O)c4c3C2=O)NC(=O)/C(C)=C\C=C\[C@H](C)[C@H](O)[C@@H](C)[C@@H](O)[C@@H](C)[C@H](OC(C)=O)[C@@H]1C [Rifampicin, RIF, Rifampicin]	–	0.25 (≈ 0.304 µM)	0.8 (≈ 0.972 µM)	0.3 (≈ 0.365 µM)	0.3 (≈ 0.365 µM)	0.6 (≈ 0.729 µM)	32 (≈ 38.9 µM)	> 64	–	–	–	% of growth reduction respect to untreated controls, intracellular M. tuberculosis ([1]; concentration 0.125 μg/ml): 96.59%; % of growth reduction respect to untreated controls, intracellular M. tuberculosis ([1]; concentration 0.25 μg/ml): 99.83%; % of growth reduction respect to untreated controls, intracellular M. tuberculosis ([1]; concentration 0.5 μg/ml): 99.93%; % of growth reduction respect to untreated controls, intracellular M. tuberculosis ([1]; concentration 1 μg/ml): 99.97%
Cc1c(CN2CCN(C)CC2)cc(-c2ccc(Cl)cc2)n1-c1ccc(Cl)cc1 [BM 212, 1-{[1,5-bis(4-chlorophenyl)-2-methyl-1H-pyrrol-3-yl]methyl}-4-methylpiperazine]	0.7 µg/mL	0.7 (≈ 1.69 µM)	–	0.4 (≈ 0.965 µM)	0.4 (≈ 0.965 µM)	100 (≈ 241 µM)	25 (≈ 60.3 µM)	4 (≈ 9.65 µM)	–	–	–	% of growth reduction respect to untreated controls, intracellular M. tuberculosis ([1]; concentration 0.125 μg/ml): 0%; % of growth reduction respect to untreated controls, intracellular M. tuberculosis ([1]; concentration 0.25 μg/ml): 29.41%; % of growth reduction respect to untreated controls, intracellular M. tuberculosis ([1]; concentration 0.5 μg/ml): 32.35%; % of growth reduction respect to untreated controls, intracellular M. tuberculosis ([1]; concentration 1 μg/ml): 51.76%
CCCc1ccc(-n2c(-c3ccc(SC)cc3)cc(CN3CCSCC3)c2C)cc1 [Compound 3d]	0.125 µg/mL	–	–	–	–	–	–	–	0.5	8	25.25 (≈ 57.8 µM)	–

From patent US8304410B2, “Pyrrole compounds as inhibitors of mycobacteria, synthesis thereof and intermediates thereto” (priority 2007, dated 2012)
